Relative viability data for one cell line are collected here from the supplement of paper PMC10307832.

What all share (experiment): relative viability (nuclei count vs DMSO), 5 days (fraction); higher = more cells survive
Compound in the assay “VE-821 + Luminespib”: CS(=O)(=O)c1ccc(-c2cnc(N)c(C(=O)Nc3ccccc3)n2)cc1 [VE-821] + CCNC(=O)c1noc(-c2cc(C(C)C)c(O)cc2O)c1-c1ccc(CN2CCOCC2)cc1 [Luminespib] (partner 0.01 µM)
The method, boiled down: (§1)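 Relative viability is defined as nuclei in treated wells over nuclei in vehicle wells. Duplicate plates were run and medians reported. Lung cancer cell lines in 1536-well plates were dosed by pin tool one day after seeding, with one drug or with a fixed anchor-drug dose plus five library-drug doses (not always all listed) in √10 steps, and nuclei were counted after 5 days.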

Compound in the assay “VE-821 + Dasatinib”: CS(=O)(=O)c1ccc(-c2cnc(N)c(C(=O)Nc3ccccc3)n2)cc1 [VE-821] + Cc1nc(Nc2ncc(C(=O)Nc3c(C)cccc3Cl)s2)cc(N2CCN(CCO)CC2)n1 [Dasatinib] (partner 0.075 µM)
The method, boiled down:
as §1

Compound in the assay “Vismodegib + Alpelisib”: CS(=O)(=O)c1ccc(C(=O)Nc2ccc(Cl)c(-c3ccccn3)c2)c(Cl)c1 [Vismodegib] + Cc1nc(NC(=O)N2CCC[C@H]2C(N)=O)sc1-c1ccnc(C(C)(C)C(F)(F)F)c1 [Alpelisib] (partner 2 µM)
The method, boiled down: as §1

Compound in the assay “Vismodegib + Navitoclax”: CS(=O)(=O)c1ccc(C(=O)Nc2ccc(Cl)c(-c3ccccn3)c2)c(Cl)c1 [Vismodegib] + CC1(C)CCC(c2ccc(Cl)cc2)=C(CN2CCN(c3ccc(C(=O)NS(=O)(=O)c4ccc(N[C@H](CCN5CCOCC5)CSc5ccccc5)c(S(=O)(=O)C(F)(F)F)c4)cc3)CC2)C1 [Navitoclax] (partner 0.5 µM)
In short, it runs like this: as §1

As to UMC-11, the relative viability in the assay with VE-821 + Luminespib (first compound 0.08 µM) amounted to 1.18; in the assay with VE-821 + Luminespib (first compound 0.253 µM) it was 0.966; with VE-821 + Luminespib (first compound 0.8 µM), 0.966; in the assay with VE-821 + Luminespib (first compound 2.53 µM) it was 1.03; with VE-821 + Luminespib (first compound 8 µM), 0.493; with VE-821 + Dasatinib (first compound 0.08 µM), 0.553. The relative viability with VE-821 + Dasatinib (first compound 0.253 µM) stood at 0.44; with VE-821 + Dasatinib (first compound 0.8 µM) it was 0.516; with VE-821 + Dasatinib (first compound 2.53 µM), 0.524; in the assay with VE-821 + Dasatinib (first compound 8 µM) it was 0.374; with Vismodegib + Alpelisib (first compound 0.08 µM), 1.01; with Vismodegib + Alpelisib (first compound 0.253 µM), 1.01. The relative viability with Vismodegib + Alpelisib (first compound 0.8 µM) was 1.05; in the assay with Vismodegib + Alpelisib (first compound 2.53 µM), 0.957; in the assay with Vismodegib + Alpelisib (first compound 8 µM), 0.952; in the assay with Vismodegib + Navitoclax (first compound 0.08 µM), 0.321; with Vismodegib + Navitoclax (first compound 0.253 µM) it was 0.313; with Vismodegib + Navitoclax (first compound 0.8 µM), 0.296. The relative viability with Vismodegib + Navitoclax (first compound 2.53 µM) was determined as 0.29; in the assay with Vismodegib + Navitoclax (first compound 8 µM) it was 0.305.
